Measurements from patent US10323060B2, “Benzoic acid derivatives of bile acid as FXR/TGR5 agonists and methods of use thereof” (ENANTA PHARMACEUTICALS, INC., priority 2016, dated 2019).

Molecular target: human FXR (NR1H4) (Homo sapiens (Human), UniProt Q96RI1)
Assay: Human FXR (NR1H4) Assay (luciferase reporter, Indigo Bioscience kit); for Efficacy (%): efficacy normalized to CDCA set as 100%
Format: cell-based
Conditions: for Emax: read-out: Efficacy (%)
Source text: Assays Human FXR (NR1H4) Assay
Determination of a ligand mediated Gal4 promoter driven transactivation to quantify ligand binding mediated activation of FXR. FXR Reporter Assay kit purchased from Indigo Bioscience (Catalogue number: IB00601) to determine the potency and efficacy of compound developed by Enanta that can induce FXR activation. The principle application of this reporter assay system is to quantify functional activity of human FXR. The assay utilizes non-human mammalian cells, CHO (Chinese hamster ovary) cells engineered to express human NR1H4 protein (referred to as FXR). Reporter cells also incorporate the cDNA encoding beetle luciferase which catalyzes the substrates and yields photon emission. Luminescence intensity of the reaction is quantified using a plate-reading luminometer, Envision. Reporter Cells include the luciferase reporter gene functionally linked to an FXR responsive promoter. Thus, quantifying changes in luciferase expression in the treated reporter cells provides a sensitive surrogate measure of the changes in FXR activity. […] The assay is according to the manufacturer's instructions. In brief, the assay was performed in white, 96 well plates using final volume of 100 ul containing cells with different doses of compounds. Retrieve Reporter Cells from −80° C. storage. Perform a rapid thaw of the frozen cells by transferring a 10 ml volume of 37° C. cell recovery medium into the tube of frozen cells. Recap the tube of Reporter Cells and immediately place it in a 37° C. water bath for 5-10 minutes. Retrieve the tube of Reporter Cell Suspension from the water bath. Sanitize the outside surface of the tube with a 70% alcohol swab, and then transfer it into the cell culture hood. Dispense 90 μl of cell suspension into each well of the 96-well Assay Plate. Transfer the plate into 37° C. incubator, allowing the cells adherent to the bottom of the well. Dilute compounds in Dilution Plate (DP), and administrate to cells at Assay Plate (AP). DMSO content of the samples was kept at 0.2%. Cells were incubated for additional 22 hours before luciferase activities were measured. Thirty minutes before intending to quantify FXR activity, remove Detection Substrate and Detection Buffer from the refrigerator and place them in a low-light area so that they may equilibrate to room temperature. Remove the plate's lid and discard all media contents by ejecting it into an appropriate waste container. Gently tap the inverted plate onto a clean absorbent paper towel to remove residual droplets. Cells will remain tightly adhered to well bottoms. Add 100 μl of luciferase detection reagent to each well of the assay plate. Allow the assay plate to rest at room temperature for at least 5 minutes following the addition of LDR. Set the instrument (Envision) to perform a single 5 second “plate shake” prior to reading the first assay well. Read time may be 0.5 second (500 mSec) per well.

Sequence of human FXR (NR1H4) (Q96RI1 whole entry): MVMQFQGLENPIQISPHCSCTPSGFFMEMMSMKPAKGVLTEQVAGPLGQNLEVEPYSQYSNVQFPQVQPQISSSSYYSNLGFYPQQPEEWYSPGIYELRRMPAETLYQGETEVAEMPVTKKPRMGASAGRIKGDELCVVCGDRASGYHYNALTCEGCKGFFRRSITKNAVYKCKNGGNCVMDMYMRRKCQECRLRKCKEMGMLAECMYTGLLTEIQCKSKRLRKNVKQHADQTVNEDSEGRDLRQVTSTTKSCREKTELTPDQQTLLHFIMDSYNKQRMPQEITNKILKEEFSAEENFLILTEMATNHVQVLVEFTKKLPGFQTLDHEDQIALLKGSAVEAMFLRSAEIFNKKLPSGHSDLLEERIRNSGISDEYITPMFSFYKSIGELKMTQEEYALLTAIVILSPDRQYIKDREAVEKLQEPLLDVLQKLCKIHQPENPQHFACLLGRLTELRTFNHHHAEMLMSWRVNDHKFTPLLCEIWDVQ

Row | SMILES | EC50 (FXR agonistic potency range, CHO reporter cells expressing human NR1H4, 22 hours incubation) | Emax
1 | CC[C@H]1[C@@H](O)[C@@H]2[C@H](CC[C@]3(C)[C@@H]([C@H](C)C/C=C/c4ccc(C(C)C(=O)OC)cc4)CC[C@@H]23)[C@@]2(C)CC[C@@H](O)C[C@@H]12 (stereo partly drawn) [Example 15] | 1 to 10 µM | 40%
2 | CC[C@H]1[C@@H](O)[C@@H]2[C@H](CC[C@]3(C)[C@@H]([C@H](C)CCOc4ccccc4C(=O)O)CC[C@@H]23)[C@@]2(C)CC[C@@H](O)C[C@@H]12 [Example 11] | – | 388%
